Reference: the supplement of paper PMC10307832

Key:
Assay in all cases: relative viability (nuclei count vs DMSO), 5 days (fraction); higher = more cells survive
[1] = compound: C1=CC=C(C(=C1)C2=CC=C(C=C2)C3=CSC4=C3C(=C(C(=O)N4)C#N)O)O + Nc1nc2[nH]cc(CCc3ccc(C(=O)N[C@@H](CCC(=O)O)C(=O)O)cc3)c2c(=O)[nH]1 [Pemetrexed] (partner 0.2 µM)
Method in brief: (§1)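 Lung cancer cell lines were pin-tool dosed in 1536-well plates on the day after seeding, with either a lone drug or a fixed anchor-drug dose plus five library-drug doses (not always all listed) in √10 steps. Nuclei were counted on 4× images after 5 days. Relative viability is the ratio of treated-well to vehicle-well nuclei counts, with each value a median of duplicate plates.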

[2] = compound: CC1=CN2C(=O)C=C(N=C2C(=C1)C(C)NC3=CC=CC=C3)N4CCOCC4 [TGX 221] + CS(=O)(=O)N1CCN(Cc2cc3nc(-c4cccc5[nH]ncc45)nc(N4CCOCC4)c3s2)CC1 [Pictilisib] (partner 1 µM)
Method in brief: as §1

[3] = compound: C1=CC=C(C(=C1)C2=CC=C(C=C2)C3=CSC4=C3C(=C(C(=O)N4)C#N)O)O + COc1cccc2cc(-c3nc([C@H]4CC[C@H](C(=O)O)CC4)n4ncnc(N)c34)[nH]c12 [OSI-027] (partner 0.5 µM)
Method in brief: as §1

[4] = compound: C1=CC=C(C(=C1)C2=CC=C(C=C2)C3=CSC4=C3C(=C(C(=O)N4)C#N)O)O + O=C(CCCCCCC(=O)Nc1ccccc1)NO [Vorinostat] (partner 1 µM)
Method in brief: as §1

| Cell Line | relative viability ([1]; first compound 0.08 µM) | relative viability ([1]; first compound 0.253 µM) | relative viability ([1]; first compound 0.8 µM) | relative viability ([1]; first compound 2.53 µM) | relative viability ([1]; first compound 8 µM) | relative viability ([2]; first compound 0.08 µM) | relative viability ([2]; first compound 0.253 µM) | relative viability ([2]; first compound 0.8 µM) | relative viability ([2]; first compound 2.53 µM) | relative viability ([2]; first compound 8 µM) | relative viability ([3]; first compound 0.08 µM) | relative viability ([3]; first compound 0.253 µM) | relative viability ([3]; first compound 0.8 µM) | relative viability ([3]; first compound 2.53 µM) | relative viability ([3]; first compound 8 µM) | relative viability ([4]; first compound 0.08 µM) | relative viability ([4]; first compound 0.253 µM) | relative viability ([4]; first compound 0.8 µM) | relative viability ([4]; first compound 2.53 µM) | relative viability ([4]; first compound 8 µM) |
| --- | --- | --- | --- | --- | --- | --- | --- | --- | --- | --- | --- | --- | --- | --- | --- | --- | --- | --- | --- | --- |
| NCI-H661 | 0.834 | 1 | 0.933 | 0.937 | 0.85 | 0.388 | 0.464 | 0.403 | 0.323 | 0.355 | 0.648 | 0.739 | 0.524 | 0.649 | 0.664 | 0.803 | 0.836 | 0.772 | 0.84 | 0.6 |
| NCI-H838 | 0.209 | 0.291 | 0.253 | 0.233 | 0.243 | 0.427 | 0.364 | 0.425 | 0.495 | 0.404 | 0.379 | 0.394 | 0.388 | 0.342 | 0.354 | 0.749 | 0.691 | 0.775 | 0.704 | 0.744 |
| NCI-H1355 | 1.01 | 1.12 | 1.13 | 1.04 | 1.11 | 0.444 | 0.437 | 0.426 | 0.362 | 0.365 | 0.379 | 0.44 | 0.43 | 0.351 | 0.317 | 0.627 | 0.658 | 0.626 | 0.578 | 0.592 |
| NCI-H1395 |  | 0.841 | 0.776 | 0.812 | 0.894 | 0.571 | 0.531 | 0.572 | 0.676 | 0.523 | 0.501 | 0.647 | 0.637 | 0.644 | 0.576 |  | 0.683 | 0.551 | 0.618 | 0.606 |
| NCI-H1437 | 0.301 | 0.371 | 0.324 | 0.323 | 0.323 | 0.439 | 0.359 | 0.473 | 0.462 | 0.399 | 0.869 | 1.05 | 0.868 | 0.873 | 0.703 | 0.788 | 0.934 | 0.889 | 0.874 | 0.603 |
| NCI-H1650 | 0.339 | 0.359 | 0.461 | 0.33 | 0.32 | 0.524 | 0.524 | 0.645 | 0.621 | 0.508 | 0.477 | 0.784 | 0.738 | 0.508 | 0.43 | 0.462 | 0.546 | 0.498 | 0.531 | 0.435 |
| NCI-H1651 | 0.386 | 0.62 | 0.513 | 0.617 | 0.549 | 0.501 | 0.481 | 0.584 | 0.578 | 0.465 | 0.66 | 0.76 | 0.715 | 0.576 | 0.448 | 0.509 | 0.523 | 0.583 | 0.535 | 0.51 |
| NCI-H1666 | 0.796 | 0.833 | 0.894 | 0.865 | 0.761 | 0.321 | 0.375 | 0.41 | 0.32 | 0.418 | 0.804 | 1.09 | 0.901 | 0.777 | 0.745 | 0.905 | 1.04 | 0.993 | 1.03 | 0.984 |
